Measurements published in article PMC10304470, “Characterization of the Antimicrobial Activities of Trichoplusia ni Cecropin A as a High-Potency Therapeutic against Colistin-Resistant Escherichia coli” (Pharmaceutics, 2023).
Peptide text beside a SMILES is read from it.

Experiments:
[1] = system: ColREC 1557-stimulated RAW 264.7 cells; assay: IL-6 secretion in ColREC 1557-infected macrophages, ELISA; assay type: cell-based, mouse; conditions: 1.3 μM peptide, 1 h before ColREC 1557 infection
Experimental: Interleukin-6 (IL-6)-specific enzyme-linked immunosorbent assays (ELISA; R&D Systems, Minneapolis, MN, USA) were performed according to the method specified by the manufacturer. Briefly, cell culture supernatants were added to immune plates treated with the capture antibody, followed by the detection antibody and streptavidin-horseradish peroxidase. For each step, the plates were washed twice with PBS containing 0.05% Tween 20. The plates were incubated with tetramethylbenzidine substrate (Invitrogen, Carlsbad, CA, USA), and the reaction was stopped with 2 N H2SO4 to measure absorbance at 450 nm. A standard graph of each marker was plotted and quantified.
To investigate the inflammatory response induced by ColREC 1557, RAW 264.7 cells (1 × 10^5 cells/well) were treated with various concentrations of peptide (0.6 to 10 μM) 1 h before bacterial infection. The control was an untreated cell. ColREC 1557 that had been cultured in LB broth overnight and sub-cultured to the exponential phase were harvested, suspended in DMEM, and used to infect RAW 264.7 cells to a final concentration of 1 × 10^5 cells/well. Subsequent nitrite and IL-6 detection was performed as described in Section 2.15.

L-929 cells = assay: Cytotoxicity, WST-8; assay type: cell-based, mouse; conditions: up to 100 μM peptide, 24 h
Experimental: (§1) Murine macrophage RAW 264.7 cells and mouse fibroblast L-929 cells were used for research and were purchased from the Korea Cell Line Bank (Seoul, Republic of Korea). Both cells were cultured in Dulbecco’s Modified Eagle’s Medium (DMEM; Welgene, Gyeongsan, Republic of Korea) supplemented with 10% fetal bovine serum and 1% antibiotics (penicillin/streptomycin) at 37 °C in the presence of 5% CO2. To measure the cytotoxicities of peptides against RAW 264.7 cells and L-929 cells, both cell lines were seeded at a density of 1 × 10^5 cells/well in a 96-well plate, to which each concentration of peptide solution (from 1.6 μM to 100 μM) was added, followed by incubation for 22 h. Subsequently, WST-8 (Biomax Co., Ltd., Guri, Republic of Korea) was added at 10% volume of the final solution, and the mixture was incubated for an additional 2 h. Absorbance was measured at 450 nm. Percentages were calculated based on untreated cells.

RAW 264.7 cells = assay: Cytotoxicity, WST-8; assay type: cell-based, mouse; conditions: 100 μM peptide, 24 h
Experimental: as §1

E. coli (KCTC 1682) = assay type: cell-based, Escherichia coli; conditions: KCTC 1682, 16 h
Source text: (§2) E. coli (KCTC 1682) was obtained from the Korean Collection for Type Cultures (KCTC, Jeongeup, Republic of Korea), and Acinetobacter baumannii (KCCM 40203) and Pseudomonas aeruginosa (KCCM 11328) from the Korea Culture Center of Microorganisms (KCCM, Seoul, Republic of Korea). Klebsiella pneumoniae (NCCP 16054), colistin-resistant E. coli NMA 1557 (ColREC 1557), NMS 12 (ColREC 12), and colistin-resistant A. baumannii NMS 1915 (ColRAB 1915), as well as colistin-resistant K. pneumoniae NMS 139 (ColRKP 139), were obtained from the National Institute of Health Multidrug Resistant Bacteria Specialized Pathogen Resources Bank (Osong, Republic of Korea).
(§3) The antibacterial abilities of the peptides (T. ni cecropin, cecropin A, polymyxin B, colistin, and melittin) were determined using the broth dilution method as previously reported. The peptides dissolved at 10 mg/mL in deionized water were serially diluted from 64 μM to 0.5 μM in 96-well plates using Mueller–Hinton (MH) broth, and bacteria cultured to exponential growth were added at 2 × 10^5 cells/mL. The group of bacteria that grew untreated in the broth was set as the positive control, and the uninoculated broth as the negative control. Dissolved peptides are colorless and equal to the OD value of the medium only. After 16 h incubation at 37 °C, the absorbance at 600 nm was measured using a SpectraMAX microplate reader (Molecular Devices, San Jose, CA, USA).

[2] = system: colistin-resistant E. coli NMS 12 (ColREC 12); assay type: cell-based, Escherichia coli; conditions: MH broth, 2 × 10^5 cells/mL, 16 h, 37 °C, OD600, >95% killing
Source text: as §2, §3

[3] = system: colistin-resistant E. coli NMA 1557 (ColREC 1557); assay type: cell-based, Escherichia coli; conditions: MH broth, 2 × 10^5 cells/mL, 16 h, 37 °C, OD600, >95% killing
Source text: as §2, §3

all bacterial strains = assay: Average MIC over all strains and relative selective index; assay type: cell-based; conditions: 8 strains; MIC above 64 μM taken as 128 μM
Experimental: as §3

[4] = system: colistin-resistant A. baumannii NMS 1915 (ColRAB 1915); conditions: MH broth, 2 × 10^5 cells/mL, 16 h, 37 °C, OD600, >95% killing
Source text: as §2
The peptides dissolved at 10 mg/mL in deionized water were serially diluted from 64 μM to 0.5 μM in 96-well plates using Mueller–Hinton (MH) broth, and bacteria cultured to exponential growth were added at 2 × 10^5 cells/mL. The group of bacteria that grew untreated in the broth was set as the positive control, and the uninoculated broth as the negative control. Dissolved peptides are colorless and equal to the OD value of the medium only. After 16 h incubation at 37 °C, the absorbance at 600 nm was measured using a SpectraMAX microplate reader (Molecular Devices, San Jose, CA, USA).

## CC[C@H](C)CCCCC(=O)N[C@@H](CCN)C(=O)N[C@H](C(=O)N[C@@H](CCN)C(=O)N[C@H]1CCNC(=O)[C@H]([C@@H](C)O)NC(=O)[C@H](CCN)NC(=O)[C@H](CCN)NC(=O)[C@H](CC(C)C)NC(=O)[C@@H](CC(C)C)NC(=O)[C@H](CCN)NC1=O)[C@@H](C)O [colistin] (HELM PEPTIDE1{[CC[C@H](C)CCCCC(=O)[*:2]].[Dab].T.[Dab].[Dab].[Dab].[dL].L.[Dab].[Dab].T}$PEPTIDE1,PEPTIDE1,5:R3-11:R2$$$V2.0; N-terminus assumed; bridges inferred)
[1]
  inhibition of IL-6: 18.4%
L-929 cells
  viability / survival rate: 95.0%
RAW 264.7 cells
  cell viability: 70.1%
E. coli (KCTC 1682)
  Minimal Inhibitory Concentration: 0.25 µM
[2]
  Minimal Inhibitory Concentration: 4 µM
[3]
  Minimal Inhibitory Concentration: 8 µM
All bacterial strains
  GM (geometric mean, average MIC value of all bacterial strains): 33.72 µM
[4]
  Minimal Inhibitory Concentration: >64 µM
